Laboratory results: ChEMBL document CHEMBL1201862, “PubChem BioAssay data set” (2004)
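Results reflect a 48-hour exposure of cells in 96-well plates to compound at five concentrations. GI50 = concentration required for 50% inhibition of growth.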 Calls of active or inactive are those of the source. Cut-off read from the data, not from the text of the source: active = GI50 up to about 1.1 µM and inactive = higher.

Legend:
Experiment in all cases: growth of human tumour cells (NCI), 48 h
[1] = test system: ACHN
[2] = test system: CCRF-CEM
[3] = test system: HOP-62
[4] = test system: HT-29
[5] = test system: IGROV-1
[6] = test system: M14
[7] = test system: MDA-MB-231
[8] = test system: MDA-N
[9] = test system: Malme-3M
[10] = test system: NCI-H226
[11] = test system: NCI/ADR-RES
[12] = test system: OVCAR-3
[13] = test system: OVCAR-4
[14] = test system: OVCAR-5
[15] = test system: OVCAR-8
[16] = test system: RXF 393
[17] = test system: SF-268
[18] = test system: SW-620
[19] = test system: U-251
[20] = test system: HOP-92

Row | Compound | GI50 [1] | GI50 [2] | GI50 [3] | GI50 [4] | GI50 [5] | GI50 [6] | GI50 [7] | GI50 [8] | GI50 [9] | GI50 [10] | GI50 [11] | GI50 [12] | GI50 [13] | GI50 [14] | GI50 [15] | GI50 [16] | GI50 [17] | GI50 [18] | GI50 [19] | GI50 [20]
1 | COC(=O)c1c(C)c2c(c(C)c1C(=O)OC)-c1c(C)ccc3ccc(C)c-2c13 | > 100 µM (inactive) | 11.4 µM (inactive) | > 100 µM (inactive) | 7.82 µM (inactive) | 54 µM (inactive) | 21 µM (inactive) | 3.94 µM (inactive) | 61.5 µM (inactive) | > 55.1 µM (inactive) | > 100 µM (inactive) | 26.7 µM (inactive) | > 85.9 µM (inactive) | > 68.5 µM (inactive) | > 68.7 µM (inactive) | 47.1 µM (inactive) | 15.6 µM (inactive) | 54 µM (inactive) | 32.9 µM (inactive) | 58.9 µM (inactive) | 
2 | C[C@]12CC[C@@H]3c4cc(Br)c(O)c(Br)c4CC[C@H]3[C@@H]1CCC2=O | 13.5 µM (inactive) | 24.7 µM (inactive) |  | 46.1 µM (inactive) | 38.1 µM (inactive) | 39.2 µM (inactive) | 32.2 µM (inactive) | 33.1 µM (inactive) | 85.9 µM (inactive) | 7.87 µM (inactive) | 12.5 µM (inactive) | 16.4 µM (inactive) | 13.3 µM (inactive) | 21.8 µM (inactive) | 19 µM (inactive) | 16.7 µM (inactive) | 23.3 µM (inactive) | 32.9 µM (inactive) | 16.6 µM (inactive) | 34.9 µM (inactive)
3 | O=C(O)CCC(=O)c1ccc2c(c1)C(C(=O)O)CC2 (stereo unspecified) | > 100 µM (inactive) |  | > 100 µM (inactive) | > 100 µM (inactive) | > 100 µM (inactive) | > 100 µM (inactive) | > 100 µM (inactive) | > 100 µM (inactive) | > 100 µM (inactive) | > 100 µM (inactive) | > 100 µM (inactive) | > 100 µM (inactive) | > 100 µM (inactive) | > 100 µM (inactive) | 0.652 µM (active) | 0.286 µM (active) | > 100 µM (inactive) | > 100 µM (inactive) | > 100 µM (inactive) | > 100 µM (inactive)
4 | COc1ccc(C2(CC(C)C)CCNC2)cc1OC (stereo unspecified) | > 100 µM (inactive) | > 100 µM (inactive) | 82.2 µM (inactive) | 39.1 µM (inactive) | 26.5 µM (inactive) | > 100 µM (inactive) | > 100 µM (inactive) | > 100 µM (inactive) | > 100 µM (inactive) | > 100 µM (inactive) | > 100 µM (inactive) |  | > 100 µM (inactive) | > 100 µM (inactive) | > 100 µM (inactive) | 41.9 µM (inactive) | 78.7 µM (inactive) | > 100 µM (inactive) | > 100 µM (inactive) | 19.8 µM (inactive)
5 | CC(=O)OCC(=O)O[C@@H]1[C@H]2[C@@H](OC(=O)c3ccccc3)[C@@H](C)C[C@]2(O)[C@H](OC(C)=O)[C@@]2(C)C[C@]1(OC(C)=O)C[C@H]1C(=O)C(C)(C)[C@@H](OC(C)=O)[C@@H]12 | > 25 µM (inactive) |  | 5.78 µM (inactive) | 9.42 µM (inactive) | > 25 µM (inactive) | > 12.1 µM (inactive) | > 25 µM (inactive) | 6.98 µM (inactive) | > 25 µM (inactive) | > 25 µM (inactive) | > 25 µM (inactive) | > 25 µM (inactive) | > 20.9 µM (inactive) | 10 µM (inactive) | > 25 µM (inactive) | > 25 µM (inactive) | > 25 µM (inactive) | 21.2 µM (inactive) | > 25 µM (inactive) | > 16.3 µM (inactive)
6 | Cc1cn(CCCCCOC(=O)NC(CCCNC(=N)N)C(=O)O)c(=O)[nH]c1=O (stereo unspecified) | 72.3 µM (inactive) | 37.2 µM (inactive) | > 100 µM (inactive) | 24.2 µM (inactive) | 38.1 µM (inactive) | 55.6 µM (inactive) | 69.8 µM (inactive) | 6.9 µM (inactive) |  | 30.3 µM (inactive) | 23.1 µM (inactive) | 50.9 µM (inactive) | > 100 µM (inactive) | > 100 µM (inactive) | 39.4 µM (inactive) | 33.3 µM (inactive) | > 100 µM (inactive) | 38.7 µM (inactive) | 50.2 µM (inactive) | > 100 µM (inactive)
7 | C[C@@H]1CC(=O)[C@@]2(C)[C@](O)(CCC3O[C@]32C)[C@@]12CC(c1ccoc1)OC2=O (stereo partly specified) | 70.6 µM (inactive) | 20.5 µM (inactive) |  | 48.5 µM (inactive) | > 100 µM (inactive) | 72.4 µM (inactive) | > 100 µM (inactive) | 33.5 µM (inactive) | 50.7 µM (inactive) | > 100 µM (inactive) | 46.2 µM (inactive) | > 100 µM (inactive) | > 100 µM (inactive) | > 100 µM (inactive) | > 100 µM (inactive) | 31.8 µM (inactive) |  | 37.4 µM (inactive) | > 100 µM (inactive) | 
